24 compounds from patent US11149035B2, “Chemical compounds as H—PGDS inhibitors” (GlaxoSmithKline Intellectual Property Development Limited, priority 2017, dated 2021) can be followed below.

In this assay the target is T1, haematopoietic prostaglandin D synthase (H-PGDS) (Homo sapiens, UniProt O60760).
T1 construct: Full length human H-PGDS cDNA (Invitrogen Ultimate ORF IOH13026) was amplified by PCR; 6-His (N); TEV protease cleavage site (N); made in house; host or cells: E. coli BL21 (DE3*)
In words: H-PGDS RapidFire high throughput mass spectrometry assay (conversion of PGH2 to PGD2). It is filed as biochemical. The following applies: 10 nM H-PGDS, PGH2 formed in situ by COX-2 from arachidonic acid; four parameter curve fit; read-out: Potency Range (mean pIC50) (converted). The protocol: The H-PGDS RapidFire™ mass spectrometric assay monitors conversion of prostaglandin H2 (PGH2) to prostaglandin D2 (PGD2) by haematopoietic prostaglandin D synthase (H-PGDS). In the assay format described here, the substrate (PGH2) is formed in situ by the action of cyclooxygenase-2 on arachidonic acid. This first step is set up to be fast, and generates a burst of PGH2 at ˜10 μM. The PGH2 is then further converted to PGD2 by the H-PGDS enzyme. […] Plates are then read on the RapidFire™ high throughput solid phase extraction system (Agilent) which incorporates a solid phase extraction step coupled to a triple quadrupole mass spectrometer (AB SCIEX). Relative levels of PGD2 and PGF2α, which acts as a surrogate for substrate, are measured and a percent conversion calculated. Inhibitors are characterised as compounds which lower the conversion of PGH2 to PGD2.
Full length human H-PGDS cDNA (Invitrogen Ultimate ORF IOH13026) was amplified by PCR with the addition of a 5′ 6-His tag and TEV protease cleavage site. The PCR product was digested with NdeI and XhoI and ligated into pET22b+ (Merck Novagen®). Expression was carried out in E. coli strain BL21 (DE3*) using auto-induction Overnight Express™ Instant TB medium (Merck Novagen®) supplemented with 1% glycerol. The culture was first grown at 37° C. and the temperature was reduced to 25° C. when OD600 reached 2.0. Cells were harvested by centrifugation after a further 18 hours. 10 g of E. coli cell pellet was suspended to a total volume of 80 mL in lysis buffer (20 mM Tris-Cl pH 7.5, 300 mM NaCl, 20 mM imidazole, 5 mM β-mercaptoethanol, 10% glycerol). 1 mg/mL protease inhibitors (Protease Inhibitor Cocktail Set III, Merck Calbiochem®) and 1 mg/mL lysozyme were added to the cell suspension. The suspension was then sonicated for 5 min (UltraSonic Processor VCX 750, Cole-Parmer Instrument Co.) with a micro probe (50% amplitude, 10 sec on/off) and then centrifuged at 100,000 g for 90 minutes (at 4° C.). The supernatant was loaded onto a Ni-NTA HiTrap column (5 mL, GE Healthcare, pre-equilibrated in lysis buffer). The column was washed with 10 column volumes of lysis buffer and eluted with lysis buffer containing 500 mM imidazole. The pooled protein peak fractions were concentrated using a 10 kDa centrifugal filter at 3500 g and 4° C. (Amicon Ultra-15 centrifugal filter unit with Ultracel-10 membrane from Millipore). Further purification of the concentrated protein was carried out using gel filtration chromatography on a HiLoad 26/600 Superdex 75 preparative grade column (GE Healthcare Life Sciences) using 50 mM Tris pH 7.5, 50 mM NaCl, 1 mM dithiothreitol, 1 mM MgCl2. Fractions containing the protein were pooled, concentrated as described above, and stored at −80° C.
The full length human COX-2 gene (accession number L15326) was amplified by PCR to generate an EcoRI—HindIII fragment containing an in-frame FLAG tag. This was subcloned into pFastBac 1 (Invitrogen). The COX-2 FLAG plasmid was recombined into the baculovirus genome according to the BAC-to-BAC protocol described by Invitrogen. Transfection into Spodoptera frugiperda (Sf9) insect cells was performed using Cellfectin (Invitrogen), according to the manufacturer's protocol. Super Sf9 cells were cultured in EX420 media (SAFC Biosciences) to a density of approximately 1.5×10^6 cells/mL within a wave bioreactor. Recombinant virus was added at a Multiplicity of Infection (MOI) of 5 and the culture was allowed to continue for 3 days. Cells were harvested using a continuous feed centrifuge run at 2500 g at a rate of approximately 2 L/min with cooling. The resultant cell slurry was re-centrifuged in pots (2500 g, 20 min, 4° C.) and the cell paste was stored at −80° C. 342 g of cell paste was re-suspended to a final volume of 1600 mL in a buffer of 20 mM Tris-Cl pH 7.4, 150 mM NaCl, 0.1 mM EDTA, 1.3% w/v n-octyl-[…] containing 20 Complete EDTA-free Protease Inhibitor Cocktail tablets (Roche Applied Science). […]

T1 sequence (O60760 whole entry): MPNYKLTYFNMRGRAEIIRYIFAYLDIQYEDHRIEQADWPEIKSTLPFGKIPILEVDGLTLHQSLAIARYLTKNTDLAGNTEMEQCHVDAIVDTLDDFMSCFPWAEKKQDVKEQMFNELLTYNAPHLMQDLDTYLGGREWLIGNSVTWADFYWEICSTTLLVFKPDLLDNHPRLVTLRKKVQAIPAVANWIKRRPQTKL

Regarding `COc1cc2ncc(C(=O)N[C@H]3CC[C@H](C(C)(C)O)CC3)cc2cn1` [Example 51, N-(trans-4-(2-Hydroxypropan-2-yl)cyclohexyl)-7-methoxy-1,6-naphthyridine-3-carboxamide], the IC50 is 10 to 79.4 nM.
Regarding `O=C(N[C@H]1CC[C@@](O)(C(F)F)CC1)c1cnc2nc(C3CC3)ccc2c1` [Example 52, 7-Cyclopropyl-N-((1r,4r)-4-(difluoromethyl)-4-hydroxycyclohexyl)-1,8-naphthyridine-3-carboxamide], the IC50 is 100 to 1000 nM.
The result for `O=C(N[C@H]1C[C@](O)(C(F)(F)F)C1)c1cnc2nc(C3CC3)ccc2c1` [Example 53, 7-cyclopropyl-N-((1s,3s)-3-hydroxy-3-(trifluoromethyl)cyclobutyl)-1,8-naphthyridine-3-carboxamide] reads 100 to 1000 nM; that for `O=C(N[C@H]1CC[C@H](N2CC(F)(F)C2)CC1)c1cnc2nc(C3CC3)ccc2c1` [Example 54, 7-Cyclopropyl-N-(trans-4-(3,3-difluoroazetidin-1-yl)cyclohexyl)-1,8-naphthyridine-3-carboxamide], 10 to 79.4 nM; that for `CC(C)(O)[C@H]1CC[C@H](NC(=O)c2cnc3nc(OCC(F)(F)F)ccc3c2)CC1` [Example 55, N-(trans-4-(2-Hydroxypropan-2-yl)cyclohexyl)-7-(2,2,2-trifluoroethoxy)-1,8-naphthyridine-3-carboxamide], 100 to 1000 nM.
With `CCOc1ccc2cc(C(=O)N[C@H]3CC[C@H](C(C)(C)O)CC3)cnc2n1` [Example 56, 7-Ethoxy-N-(trans-4-(2-hydroxypropan-2-yl)cyclohexyl)-1,8-naphthyridine-3-carboxamide], the IC50 is 10 to 79.4 nM.
In the case of `C[C@H]1CCN1c1nc2ncc(C(=O)N[C@H]3CC[C@H](C(C)(C)O)CC3)cc2cc1Cl` [Example 58, 6-Chloro-N-(trans-4-(2-hydroxypropan-2-yl)cyclohexyl)-7-((S)-2-methylazetidin-1-yl)-1,8-naphthyridine-3-carboxamide], the IC50 was less than 10 nM.
Take `C[C@H]1CCN1c1nc2ncc(C(=O)N[C@H]3CC[C@](C)(O)CC3)cc2cc1Cl` [Example 59, 6-Chloro-N-((1r,4s)-4-hydroxy-4-methylcyclohexyl)-7-((S)-2-methylazetidin-1-yl)-1,8-naphthyridine-3-carboxamide]: the IC50 is less than 10 nM.
For `C[C@H]1CCN1c1nc2ncc(C(=O)N[C@H]3CCNC3=O)cc2cc1Cl` [Example 60, 6-Chloro-7-((S)-2-methylazetidin-1-yl)-N—((S)-2-oxopyrrolidin-3-yl)-1,8-naphthyridine-3-carboxamide], the IC50 is less than 10 nM.
For `C[C@H]1CCN1c1nc2ncc(C(=O)NC3CC4(C3)CC(C(C)(C)O)C4)cc2cc1Cl` (stereo partly drawn) [Example 61, (S)-6-Chloro-N-(6-(2-hydroxypropan-2-yl)spiro[3.3]heptan-2-yl)-7-(2-methylazetidin-1-yl)-1,8-naphthyridine-3-carboxamide], the IC50 is less than 10 nM.
With `COc1nc2ncc(C(=O)N[C@H]3CC[C@H](C(C)(C)O)CC3)cc2cc1Cl` [Example 62, 6-Chloro-N-(trans-4-(2-hydroxypropan-2-yl)cyclohexyl)-7-methoxy-1,8-naphthyridine-3-carboxamide], the IC50 is less than 10 nM.
The same measure for `C[C@H]1CCN1c1nc2ncc(C(=O)N[C@H]3C[C@@](C)(O)C3)cc2cc1Cl` [Example 63, 6-chloro-N-((1s,3R)-3-hydroxy-3-methylcyclobutyl)-7-((S)-2-methylazetidin-1-yl)-1,8-naphthyridine-3-carboxamide]: less than 10 nM.
For the compound `C[C@H]1CCN1c1nc2ncc(C(=O)N[C@H]3C[C@](C)(O)C3)cc2cc1Cl` [Example 64, 6-Chloro-N-((1r,3S)-3-hydroxy-3-methylcyclobutyl)-7-((S)-2-methylazetidin-1-yl)-1,8-naphthyridine-3-carboxamide], the IC50 is less than 10 nM.
The same measure for `C[C@H]1CCN1c1nc2ncc(C(=O)N[C@H]3C[C@H](C(C)(C)O)C3)cc2cc1Cl` [Example 65, 6-Chloro-N-(trans-3-(2-hydroxypropan-2-yl)cyclobutyl)-7-((S)-2-methylazetidin-1-yl)-1,8-naphthyridine-3-carboxamide]: less than 10 nM; for `C[C@H]1CCN1c1nc2ncc(C(=O)N[C@H]3C[C@](O)(C(F)(F)F)C3)cc2cc1Cl` [Example 66, 6-Chloro-N-((1s,3R)-3-hydroxy-3-(trifluoromethyl)cyclobutyl)-7-((S)-2-methylazetidin-1-yl)-1,8-naphthyridine-3-carboxamide]: less than 10 nM; for `C[C@@H]1CNC(=O)[C@H]1NC(=O)c1cnc2nc(N3CC[C@@H]3C)c(Cl)cc2c1` [Example 67, 6-Chloro-N-((3S,4R)-4-methyl-2-oxopyrrolidin-3-yl)-7-((S)-2-methylazetidin-1-yl)-1,8-naphthyridine-3-carboxamide]: less than 10 nM.
The same measure for `O=C(N[C@H]1C[C@@H](N[C@H](CO)C(F)(F)F)C1)c1cnc2nc(C3CC3)ccc2c1` [Example 68, 7-Cyclopropyl-N-(cis-3-(((R)-1,1,1-trifluoro-3-hydroxypropan-2-yl)amino)cyclobutyl)-1,8-naphthyridine-3-carboxamide]: 100 to 1000 nM; for `O=C(N[C@H]1C[C@H](N[C@H](CO)C(F)(F)F)C1)c1cnc2nc(C3CC3)ccc2c1` [Example 69, 7-Cyclopropyl-N-(trans-3-(((R)-1,1,1-trifluoro-3-hydroxypropan-2-yl)amino)cyclobutyl)-1,8-naphthyridine-3-carboxamide]: 10 to 79.4 nM; for `CSc1ncc2cc(C(=O)N[C@H]3CC[C@H](C(C)(C)O)CC3)cnc2n1` [Example 70, N-(trans-4-(2-Hydroxypropan-2-yl)cyclohexyl)-2-(methylthio)pyrido[2,3-d]pyrimidine-6-carboxamide]: less than 10 nM.
The result for `O=C(N[C@H]1CCNC1=O)c1cnc2nc(C3CC3)c(Cl)cc2c1` [Example 71, (S)-6-Chloro-7-cyclopropyl-N-(2-oxopyrrolidin-3-yl)-1,8-naphthyridine-3-carboxamide] reads less than 10 nM.
As to `CC(C)(O)[C@H]1CC[C@H](NC(=O)c2cnc3nc(C4CCC4)ccc3c2)CC1` [Example 72, 7-Cyclobutyl-N-(trans-4-(2-hydroxypropan-2-yl)cyclohexyl)-1,8-naphthyridine-3-carboxamide], the IC50 was 10 to 79.4 nM.
As to `CC(C)(O)[C@H]1C[C@H](NC(=O)c2cnc3nc(C4CC4)c(Cl)cc3c2)C1` [Example 73, 6-Chloro-7-cyclopropyl-N-(trans-3-(2-hydroxypropan-2-yl)cyclobutyl)-1,8-naphthyridine-3-carboxamide], the IC50 is less than 10 nM.
As for `C[C@]1(O)CC[C@H](NC(=O)c2cnc3nc(C4CC4)c(Cl)cc3c2)CC1` [Example 74, 6-Chloro-7-cyclopropyl-N-((1r,4r)-4-hydroxy-4-methylcyclohexyl)-1,8-naphthyridine-3-carboxamide ethyl acetate solvate], the IC50 was less than 10 nM.
The result for `C[C@]1(O)C[C@H](NC(=O)c2cnc3nc(C4CC4)c(Cl)cc3c2)C1` [Example 75, 6-Chloro-7-cyclopropyl-N-((1r,3r)-3-hydroxy-3-methylcyclobutyl)-1,8-naphthyridine-3-carboxamide] reads 10 to 79.4 nM.
